From the NIST ThermoML archive (doi:10.1016/j.fluid.2014.04.003)
Numbers after ± are expanded uncertainties.

Details: Crystal; DTA

Normal melting temperature: 139.26 ± 0.39 °C
Structure (SMILES): CC(C)Cc1ccc([C@H](C)C(=O)O)cc1.CCCCCCCCNC[C@H](O)[C@@H](O)[C@H](O)[C@H](O)CO [S-ibuprofen n-octyl-d-glucamine salt]
